“And” between values parts separate entries of the source, which are not always exact repeats. Equal values may be shown once.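 Step 1: Grow cells in 96-well plates. Step 2: Expose to compound for 48 hours at 5 concentrations. Step 3: Interpolate endpoints linearly; if unreached, use highest concentration. GI50: concentration for 50% inhibition of growth. TGI denotes the concentration required for complete inhibition of growth.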 *1 amine or outer side, *2 acyl side, *3 side chain or, on linkers, in order; H or OH if unused. Where a SMILES comes first, the peptide text is derived from it. Bridges are numbered along the chain shown (N, C = ends). Roman numbers before positions name the chains, in order. [ ]: non-standard residue; d: D form. Actinocin(9to1) = Cc1c2oc3c(C)ccc(C(=O)[*:1])c3nc-2c(C(=O)[*:2])c(N)c1=O; NMeH = CN[CH](Cc1c[nH]cn1)C(=O)O; Sar = CNCC(=O)O
Assays:
Experiment in all cases: DTP human tumour cell line panel, 48 h
UO-31 renal = tested on: UO-31 renal
CCRF-CEM leukemia = tested on: CCRF-CEM leukemia
SF-268 CNS = tested on: SF-268 CNS
NCI/ADR-RES ovarian = tested on: NCI/ADR-RES ovarian
IGROV1 ovarian = tested on: IGROV1 ovarian
OVCAR-5 ovarian = tested on: OVCAR-5 ovarian
NCI-H23 lung = tested on: NCI-H23 lung
K-562 leukemia = tested on: K-562 leukemia
HCT-116 colon = tested on: HCT-116 colon
HT29 colon = tested on: HT29 colon
SNB-75 CNS = tested on: SNB-75 CNS

Structure (SMILES)	TGI (UO-31 renal)	TGI (CCRF-CEM leukemia)	TGI (SF-268 CNS)	TGI (NCI/ADR-RES ovarian)	TGI (IGROV1 ovarian) [µM]	TGI (OVCAR-5 ovarian)	TGI (NCI-H23 lung) [µM]	TGI (K-562 leukemia)	TGI (HCT-116 colon) [µM]	TGI (HT29 colon)	GI50 (UO-31 renal) [µM]	GI50 (SF-268 CNS) [µM]	GI50 (NCI/ADR-RES ovarian) [µM]	TGI (SNB-75 CNS) [µM]	GI50 (OVCAR-5 ovarian) [µM]	GI50 (NCI-H23 lung) [µM]	GI50 (CCRF-CEM leukemia) [µM]
N#CC1(C#N)C(C#N)(C#N)C1(C#N)C(N)=O	> 100 µM	> 100 µM	> 100 µM	> 100 µM	> 100	> 100 µM	> 100	> 100 µM	> 100	> 100 µM							
CCC1(O)CC(OC2CC(N(C)C)C(OC3CC(O)C(OC4OC(C)C(=O)C=C4N)C(C)O3)C(C)O2)c2c(cc3c(c2O)C(=O)c2c(O)cccc2C3=O)C1C(=O)OC (centres undefined)	0.96 µM and 0.809 µM	0.131 µM and 0.818 µM	2.89 µM and 1.38 µM	5.5 µM and 27 µM		1.37 µM and 2.04 µM	2.95	0.262 µM and 1.73 µM	1.79	0.431 µM and 1.24 µM	0.106	0.0127	1.86	0.555	0.0152	0.0144	
Cc1c2oc3c(C)ccc(C(=O)NC4C(=O)NC(C(C)C)C(=O)N5CCCC5C(=O)N(C)CC(=O)N(C)C(Cc5cnc[nH]5)C(=O)OC4C)c3nc-2c(C(=O)NC2C(=O)NC(C(C)C)C(=O)N3CCCC3C(=O)N(C)CC(=O)N(C)C(Cc3cnc[nH]3)C(=O)OC2C)c(N)c1=O (centres undefined) (I: TVP[Sar][NMeH] / II: TVP[Sar][NMeH]; ester I:1-I:C, II:1-II:C; linker I:N-II:N via Actinocin(9to1); configuration not given here)	> 100 µM	> 100 µM	> 100 µM	> 100 µM	> 100	> 100 µM	> 100	> 100 µM		> 100 µM				> 100			
COc1ccccc1-n1c(=O)n(C)c(=O)n1C(C)(C)C	> 100 µM	> 100 µM	> 100 µM	> 100 µM		> 100 µM	> 100	> 100 µM	> 100	> 100 µM				> 100			
CNc1nnc(CCCCCCCCc2nnc(NC)o2)o1	> 100 µM	43 µM		> 100 µM	> 100	> 100 µM	> 100	> 100 µM	41.9	90.8 µM				> 100			
Cc1cc(S(=O)(=O)Nc2nc3ncccc3[nH]2)c(S)cc1Cl		> 100 µM	> 100 µM	> 100 µM	> 100	> 100 µM	> 100	> 100 µM	> 100	> 100 µM				> 100			
CC1CC/C(=C\c2ccc(F)cc2)C2=C1C(c1ccc(F)cc1)N1C(=O)CSC1=N2 (centres undefined)	> 100 µM	> 100 µM	> 100 µM	> 100 µM	> 100		> 100	> 100 µM	> 100	> 100 µM							
Cc1c(CNc2ccc(C(=O)NC(CCCNC(=O)c3ccccc3C(=O)O)C(=O)O)cc2)cnc2nc(N)nc(N)c12 (centres undefined)				> 100 µM		> 100 µM						0.00161					> 100
Cc1ccc(S(=O)(=O)N2C[C@@H]3CC[C@]4(CO[Si](C)(C)C(C)(C)C)N[C@@H](c5ccccc5)[C@H]2[C@H]34)cc1	> 100 µM	> 100 µM	> 100 µM	> 100 µM	> 100	> 100 µM	> 100	> 100 µM	> 100	42.6 µM							
C#CC(O)(c1nc2ccccc2s1)c1nc2ccccc2s1	29.4 µM	79 µM	> 100 µM	75.6 µM	31.6	51.6 µM	56.1	> 100 µM	30.2	77.6 µM							
O=C(COc1ccc(OCC(=O)N2C(=O)CC(=O)N(c3ccc(Cl)cc3)C2=S)cc1)N1C(=O)CC(=O)N(c2ccc(Cl)cc2)C1=S	> 100 µM		> 100 µM	93.4 µM	> 100	> 100 µM	> 100	> 100 µM	25.2	> 100 µM				> 100			
O=c1[nH]nc(-c2ccccc2)n1/N=C/c1ccc([N+](=O)[O-])o1	12.9 µM	19.6 µM	> 28 µM	> 26 µM	16.9	31.5 µM		> 77.1 µM	5.55	> 48.7 µM				> 70.2			
CSC(SC)=C(C#N)C(=O)Nc1cccc(Cl)c1		> 100 µM	> 100 µM	> 100 µM	> 100	> 100 µM		> 100 µM	> 100	> 100 µM				> 100			
ClC(Cl)(Cl)C1CCOC1n1nnc2ccccc21 (centres undefined)		> 100 µM	> 100 µM	> 100 µM	> 100	> 100 µM	> 100	63.9 µM	> 100	> 100 µM				54.3			
COc1ccc(C2C3=C(N=C4SC(C(C)=O)=C(C)N42)c2ccccc2CC3)cc1 (centres undefined)	> 100 µM	> 100 µM	> 100 µM		> 100	> 100 µM	> 100		> 100	> 100 µM				> 100			
Cc1nc2cc(F)c(F)cc2[nH]c1=O	> 100 µM	> 100 µM	> 100 µM	> 100 µM		> 100 µM	> 100	> 100 µM	> 100	> 100 µM				> 100			
O=[N+]([O-])c1ccc(NN=C2CN3CCN(C2)c2ccccc23)c([N+](=O)[O-])c1	> 100 µM	> 100 µM	> 100 µM	> 100 µM	> 100	> 100 µM	> 100	> 100 µM	> 100	> 100 µM							
Cc1cc2[nH]c3c(C#N)c(-c4ccccc4)c(N=Nc4ccc(F)cc4)c(=O)n3c2cc1C	> 100 µM	> 100 µM	> 100 µM	> 100 µM		> 100 µM	> 100		> 100					> 100			
O=C1NC(=O)c2ccccc2/C1=C/c1ccc2c(c1)OCO2	32.4 µM	> 100 µM	82.1 µM	69.2 µM	60.9	> 100 µM	46.8		22.5	44.8 µM				86.6			
CC(C)(C)OC(=O)NC12C3C4C1C1C2C3C41NC(=O)OC(C)(C)C (centres undefined)	> 100 µM	61.7 µM	> 100 µM	> 100 µM	> 100	> 100 µM	> 100	> 100 µM	> 100	> 100 µM							

Reference: PubChem BioAssay (NCI)
